The record followed here is patent US11434242B2, “Dopamine-b-hydroxylase inhibitors” (BIAL-PORTELA & Cª, S.A., priority 2017, dated 2022).

This assay has as its target T1, Dopamine beta hydroxylase (Homo sapiens, UniProt P09172).
T1 construct: 125 μl of plasma; tissue Instituto Português do Sangue Transplantação; host or cells: human plasma from healthy donors
T1 sequence (P09172 40-617 limits assumed): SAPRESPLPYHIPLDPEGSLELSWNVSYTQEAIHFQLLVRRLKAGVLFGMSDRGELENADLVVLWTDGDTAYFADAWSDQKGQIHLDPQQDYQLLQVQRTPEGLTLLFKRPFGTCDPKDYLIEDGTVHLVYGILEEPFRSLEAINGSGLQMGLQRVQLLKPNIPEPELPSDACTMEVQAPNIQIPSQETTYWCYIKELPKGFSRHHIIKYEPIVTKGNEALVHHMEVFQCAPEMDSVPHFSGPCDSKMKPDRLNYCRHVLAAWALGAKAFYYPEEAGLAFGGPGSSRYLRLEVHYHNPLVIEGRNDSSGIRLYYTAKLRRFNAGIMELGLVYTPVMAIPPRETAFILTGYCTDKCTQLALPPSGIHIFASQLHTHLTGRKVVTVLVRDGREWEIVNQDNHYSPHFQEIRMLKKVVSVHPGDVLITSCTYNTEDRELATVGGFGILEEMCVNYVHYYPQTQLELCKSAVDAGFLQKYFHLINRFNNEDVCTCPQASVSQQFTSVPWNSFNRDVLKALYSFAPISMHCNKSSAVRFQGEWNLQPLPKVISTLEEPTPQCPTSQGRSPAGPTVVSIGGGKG
The assay can be described thus: Dopamine beta hydroxylase activity in human plasma. It counts as biochemical. Particulars: for Plasma (0.01 μM), activity in % of control: inhibitor 0.01 μM; for Plasma (0.1 μM), activity in % of control: inhibitor 0.1 μM; for Plasma (1 μM), activity in % of control: inhibitor 1 μM. The gist of the method:
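Healthy-donor human plasma pre-incubated 10 min at 37° C with compound at final 10, 100 or 1000 nM in pH 5.0 acetate buffer with ascorbate, fumarate, pargyline, N-ethylmaleimide, catalase and copper sulfate. Tyramine substrate then added for 45 min; octopamine formed was isolated by SCX cartridge, periodate-converted and read at 330 nm; activity given as % control.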

For `O=C(Cc1[nH]c(=S)n2c1C[C@@H](c1c(F)ccc(Br)c1F)C2)N1CCC2(CCOC2)CC1` [Example 165, (S)-2-(6-(3-bromo-2,6-difluorophenyl)-3-thioxo-2,5,6,7-tetrahydro-3H-pyrrolo[1,2-c]imidazol-1-yl)-1-(2-oxa-8-azaspiro[4.5]decan-8-yl)ethan-1-one], the “Plasma (0.01 μM), activity in % of control” value was 74.3 % of control and the “Plasma (0.1 μM), activity in % of control” value is recorded as 14.8 % of control.
As to `N#CN/C(N)=N/Cc1[nH]c(=S)n2c1C[C@@H](c1c(F)ccc(Br)c1F)C2` [Example 224, 2-{[(6S)-6-(3-bromo-2,6-difluorophenyl)-3-thioxo-2,5,6,7-tetrahydro-3H-pyrrolo[1,2-c]imidazol-1-yl]methyl}-1-cyanoguanidine], the “Plasma (0.01 μM), activity in % of control” value is given as 22.6 % of control and the “Plasma (0.1 μM), activity in % of control” value is 0.6 % of control.
For the molecule `Cn1c(CC(=O)N2CCCO2)c2n(c1=S)C[C@H](c1c(F)ccc(Cl)c1F)C2` [Example 444, (S)-2-(6-(3-chloro-2,6-difluorophenyl)-2-methyl-3-thioxo-2,5,6,7-tetrahydro-3H-pyrrolo[1,2-c]imidazol-1-yl)-1-(isoxazolidin-2-yl)ethan-1-one], the “Plasma (0.01 μM), activity in % of control” value is 73.5 % of control and the “Plasma (0.1 μM), activity in % of control” value was 57.7 % of control.
On to `Cn1c(CC(=O)N[C@@H]2CCCOC2)c2n(c1=S)C[C@@H](c1c(F)ccc(F)c1F)C2` [Example 255, 2-((R)-2-methyl-3-thioxo-6-(2,3,6-trifluorophenyl)-2,5,6,7-tetrahydro-3H-pyrrolo[1,2-c]imidazol-1-yl)-N—((R)-tetrahydro-2H-pyran-3-yl)acetamide], for which the “Plasma (0.01 μM), activity in % of control” value is 71.8 % of control and the “Plasma (0.1 μM), activity in % of control” value is listed as 24.6 % of control.
Turning to `CN(C)C(=O)CN1CCN(C(=O)Cc2[nH]c(=S)n3c2C[C@H](c2c(F)c(F)cc(F)c2F)C3)CC1` [Example 85, (R)—N,N-dimethyl-2-(4-(2-(6-(2,3,5,6-tetrafluorophenyl)-3-thioxo-2,5,6,7-tetrahydro-3H-pyrrolo[1,2-c]imidazol-1-yl)acetyl)piperazin-1-yl)acetamide], the “Plasma (0.1 μM), activity in % of control” value is listed as 59.1 % of control and the “Plasma (1 μM), activity in % of control” value is 12.2 % of control.
Consider `Fc1ccc(Br)c(F)c1[C@@H]1Cc2c(CCNC3CCC3)[nH]c(=S)n2C1` [Example 181, (S)-6-(3-bromo-2,6-difluorophenyl)-1-(2-(cyclobutylamino)ethyl)-2,5,6,7-tetrahydro-3H-pyrrolo[1,2-c]imidazole-3-thione], for which the “Plasma (0.01 μM), activity in % of control” value is recorded as 68.9 % of control and the “Plasma (0.1 μM), activity in % of control” value is on record as 18.3 % of control.
Regarding `CN(CCO)Cc1[nH]c(=S)n2c1C[C@H](c1c(F)c(F)cc(F)c1F)C2.Cl` [Example 211, (R)-1-(((2-hydroxyethyl)(methyl)amino)methyl)-6-(2,3,5,6-tetrafluorophenyl)-2,5,6,7-tetrahydro-3H-pyrrolo[1,2-c]imidazole-3-thione hydrochloride], the “Plasma (0.01 μM), activity in % of control” value is reported as 104.9 % of control and the “Plasma (0.1 μM), activity in % of control” value is 94.8 % of control.
The matching figures for `Cl.Fc1ccc(Br)cc1[C@]12C[C@H]1c1c(CCNCC3CC3)[nH]c(=S)n1C2` [Example 186, (5aS,6aR)-5a-(5-bromo-2-fluorophenyl)-1-(2-((cyclopropylmethyl)amino)ethyl)-5,5a,6,6a-tetrahydrocyclopropa[3,4]pyrrolo[1,2-c]imidazole-3(2H)-thione hydrochloride]: 62.7 % of control and 18.0 % of control.
The matching figures for `Cn1c(CC(=O)NC2CCOCC2)c2n(c1=S)C[C@@H](c1c(F)ccc(F)c1F)C2` [Example 299, (R)-2-(2-methyl-6-(2,3,6-trifluorophenyl)-3-thioxo-2,5,6,7-tetrahydro-3H-pyrrolo[1,2-c]imidazol-1-yl)-N-(tetrahydro-2H-pyran-4-yl)acetamide]: 84.3 % of control and 48.4 % of control.
Take `Cn1c(CC(=O)NC2COC2)c2n(c1=S)C[C@@]1(c3cc(Cl)ccc3F)C[C@@H]21` [Example 433, 2-((5aS,6aR)-5a-(5-chloro-2-fluorophenyl)-2-methyl-3-thioxo-2,3,5,5a,6,6a-hexahydrocyclopropa[3,4]pyrrolo[1,2-c]imidazol-1-yl)-N-(oxetan-3-yl)acetamide]: the “Plasma (0.01 μM), activity in % of control” value is given as 56.9 % of control and the “Plasma (0.1 μM), activity in % of control” value is 9.2 % of control.
Take `NC(=O)Cc1[nH]c(=S)n2c1C[C@@H](c1c(F)ccc(Br)c1F)C2` [Example 96, (S)-2-(6-(3-bromo-2,6-difluorophenyl)-3-thioxo-2,5,6,7-tetrahydro-3H-pyrrolo[1,2-c]imidazol-1-yl)acetamide]: the “Plasma (0.1 μM), activity in % of control” value was 22.4 % of control and the “Plasma (1 μM), activity in % of control” value was 0.8 % of control.
Take `O=C(O)Cc1[nH]c(=S)n2c1C[C@@H](c1cc(Br)ccc1F)C2` [Example 16, (S)-2-(6-(5-bromo-2-fluorophenyl)-3-thioxo-2,5,6,7-tetrahydro-3H-pyrrolo[1,2-c]imidazol-1-yl)acetic Acid]: the “Plasma (0.1 μM), activity in % of control” value is listed as 72.9 % of control and the “Plasma (1 μM), activity in % of control” value is 12.7 % of control.
As for `OCCc1[nH]c(=S)n2c1C[C@H](c1c(F)ccc(Br)c1F)C2` [Example 173, (R)-6-(3-bromo-2,6-difluorophenyl)-1-(2-hydroxyethyl)-2,5,6,7-tetrahydro-3H-pyrrolo[1,2-c]imidazole-3-thione], the “Plasma (0.01 μM), activity in % of control” value was 94.2 % of control and the “Plasma (0.1 μM), activity in % of control” value is 33.1 % of control.
The matching figures for `Cn1c(CC(=O)N2CCC(CF)C2)c2n(c1=S)C[C@@H](c1c(F)ccc(F)c1F)C2` (stereo partly drawn) [Example 353, 1-(3-(fluoromethyl)pyrrolidin-1-yl)-2-((R)-2-methyl-3-thioxo-6-(2,3,6-trifluorophenyl)-2,5,6,7-tetrahydro-3H-pyrrolo[1,2-c]imidazol-1-yl)ethan-1-one]: 90.6 % of control and 38.4 % of control.
Consider `NC(=O)C1CCN(C(=O)Cc2[nH]c(=S)n3c2C[C@H](c2c(F)c(F)cc(F)c2F)C3)CC1` [Example 86, (R)-1-(2-(6-(2,3,5,6-tetrafluorophenyl)-3-thioxo-2,5,6,7-tetrahydro-3H-pyrrolo[1,2-c]imidazol-1-yl)acetyl)piperidine-4-carboxamide], for which the “Plasma (0.1 μM), activity in % of control” value is recorded as 70.9 % of control and the “Plasma (1 μM), activity in % of control” value is recorded as 14.7 % of control.
In the case of `Cn1c(CC(=O)N[C@H]2CCOC2)c2n(c1=S)C[C@H](c1cc(F)cc(F)c1)C2` [Example 426, 2-((S)-6-(3,5-difluorophenyl)-2-methyl-3-thioxo-2,5,6,7-tetrahydro-3H-pyrrolo[1,2-c]imidazol-1-yl)-N—((S)-tetrahydrofuran-3-yl)acetamide], the “Plasma (0.01 μM), activity in % of control” value is recorded as 83.5 % of control and the “Plasma (0.1 μM), activity in % of control” value is 66.3 % of control.
As for `O=C(Cc1[nH]c(=S)n2c1C[C@H](c1c(F)c(F)cc(F)c1F)C2)N1CCC(CO)CC1` [Example 83, (R)-1-(4-(hydroxymethyl)piperidin-1-yl)-2-(6-(2,3,5,6-tetrafluorophenyl)-3-thioxo-2,5,6,7-tetrahydro-3H-pyrrolo[1,2-c]imidazol-1-yl)ethan-1-one], the “Plasma (0.1 μM), activity in % of control” value is on record as 78.8 % of control and the “Plasma (1 μM), activity in % of control” value was 15.9 % of control.
Regarding `Cn1c(CCO)c2n(c1=S)C[C@H](c1c(F)ccc(Br)c1F)C2` [Example 456, (S)-6-(3-bromo-2,6-difluorophenyl)-1-(2-hydroxyethyl)-2-methyl-2,5,6,7-tetrahydro-3H-pyrrolo[1,2-c]imidazole-3-thione], the “Plasma (0.01 μM), activity in % of control” value is 86.8 % of control and the “Plasma (0.1 μM), activity in % of control” value is 20.2 % of control.
The matching figures for `O=C(O)Cc1[nH]c(=S)n2c1C[C@@H](c1c(F)ccc(Cl)c1F)C2` [Example 407, (S)-2-(6-(3-chloro-2,6-difluorophenyl)-3-thioxo-2,5,6,7-tetrahydro-3H-pyrrolo[1,2-c]imidazol-1-yl)acetic acid]: 102.6 % of control and 42.3 % of control.
Take `CN(C(=O)Cc1[nH]c(=S)n2c1C[C@H](c1c(F)c(F)cc(F)c1F)C2)C1CCOCC1` [Example 378, (R)—N-methyl-2-(6-(2,3,5,6-tetrafluorophenyl)-3-thioxo-2,5,6,7-tetrahydro-3H-pyrrolo[1,2-c]imidazol-1-yl)-N-(tetrahydro-2H-pyran-4-yl)acetamide]: the “Plasma (0.01 μM), activity in % of control” value was 110.2 % of control and the “Plasma (0.1 μM), activity in % of control” value is 52.6 % of control.
